Structures can show the parent of a compound that is named as a salt. Where two headings read alike, the source gives them in different places. Non-standard residues stand in square brackets, D forms with d. Residues, ends and D or L forms follow the SMILES beside them.
Experiments:
[1] = cited from earlier work
[2] = tested on: subjects with type 2 diabetes and nephropathy; test: Example 3: Phase 2b randomized, double-blind, placebo-controlled 8-week study with thoracic bioimpedance; type: in vivo, human; conditions: dose of 0.5 mg
From the text: This study also included measurement of thoracic bioimpedance to assess the potential for thoracic fluid retention with atrasentan.
An equal percentage of subjects in all 3 groups experienced an adverse event (81.3%). […] (Table 17).
A mean decrease of 4 ohms in thoracic bioimpedance, as measured by the ZOE® Fluid Status Monitor, is considered clinically indicative of thoracic fluid overload. Mean thoracic bioimpedance fluctuated in all treatment groups over time, with greater mean changes in the 2 atrasentan groups than in the placebo group.

ob-ZSF1 rats = test: Example 5: preclinical study of hypotensive synergy, mean arterial pressure; type: in vivo, rat; conditions: 10 mg/kg/day for 12 weeks
From the text: In the example, a preclinical animal model is used to evaluate whether atrasentan and an ARB cause a synergistic hypotensive effect.

With `CC(C)C[C@@H]1NC(=O)[C@@H](C(C)C)NC(=O)[C@@H]2CCCN2C(=O)[C@@H](CC(=O)O)NC(=O)[C@@H](Cc2c[nH]c3ccccc23)NC1=O` [BQ-123] (cyclo(L[dW][dD]P[dV])) as the compound, how does the “mean arterial pressure, mean area under curve +/− SEM” value ([1]; BQ-123 alone) read?
Its value is −2.3 mmHg.

What about the “mean arterial pressure, mean area under curve +/− SEM” value ([1]; BQ-123 plus enalapril) of the same compound?
Its value is −5.1 mmHg.

For `CCCCN(CCCC)C(=O)CN1C[C@H](c2ccc3c(c2)OCO3)[C@@H](C(=O)O)[C@@H]1c1ccc(OC)cc1` [atrasentan HCl], which “reduction in UACR” value [2] is on record?
Its value is “not demonstrated to result in a statistically significant reduction in UACR”.

For `CCCCc1nc(Cl)c(CO)n1Cc1ccc(-c2ccccc2-c2nn[nH]n2)cc1` [losartan, reference compound], which “mean arterial pressure (MAP)” value (ob-ZSF1 rats) is on record?
Its value is “significant decrease”.

— US9855245B2, “Methods for improving lipid profiles using atrasentan” (AbbVie Inc., priority 2013, dated 2018)
